# Measured values published in EPA's ToxValDB 9.5 (doi:10.2903/j.efsa.2006.79r).
# Columns and labels:
# Aphidius rhopalosiphi = test: LR50; higher = less toxic; conditions: acute; duration: 48 hours; mortality
# Colinus virginianus = conditions: reproduction developmental
# Apis mellifera = conditions: acute; duration: 48 hours; dermal; mortality
# Anas platyrhynchos = conditions: short-term; duration: 5 days; oral; feed; mortality
# Tagia sp. = conditions: mortality
# Coturnix japonica = conditions: acute; oral; mortality
# Daphnia magna = conditions: chronic/long-term; reproduction
# Rattus norvegicus = conditions: acute; oral; mortality
# Canidae = conditions: subchronic; duration: 90 days; oral; diet; Dog Other; clinical signs
structure (smiles),measurement,setting,value
CNC(=O)Oc1cc(C)c(SC)c(C)c1 [Methiocarb],LR50,Aphidius rhopalosiphi,0.47 g/ha
same,NOEC,Colinus virginianus,4.51 mg/kg-day
same,LD50,Apis mellifera,0.23 µg/piece
same,LC50,"Oncorhynchus mykiss; acute, mortality",0.65 µg/mL
same,NOEC,"Oncorhynchus mykiss; chronic/long-term, growth",0.05 mg/L
same,LC50,Anas platyrhynchos,1070 mg/kg
same,LC50,Tagia sp.; acute,1330 mg/kg
same,NOEC,Tagia sp.; chronic/long-term,0.32 mg/kg
same,LD50,Coturnix japonica,5 mg/kg
same,NOEC,Daphnia magna,0.0001 mg/L
same,LD50,Rattus norvegicus,19 mg/kg
same,NOAEL,Canidae,1.33 mg/kg-day
